Consider 1 compound from patent US11607420B2, “Formulation” (DSM IP ASSETS B.V., priority 2018, dated 2023).

The series in a line: Absorption of aqueous solution after dissolving powder in water (riboflavin coloration/release). The conditions noted are these: powder containing 10 mg riboflavin in 1000 ml water for 15 min; measured at 545 nm, spectrophotometer. Format: physicochemical. How it is done:
20 mg of coated powder (containing 10 mg of Riboflavin) was dissolved in 1000 ml water for 15 min. Absorption of the solution was measured at 545 nm using a spectrophotometer (Genesys 20, thermo Scientific). Absorption of the solution was 0.065.
10 mg of riboflavin powder was dissolved in 1000 ml water for 15 min. Absorption of the solution was measured at 545 nm using a spectrophotometer (Genesys 20, thermo Scientific). Absorption of the solution was 0.386.
16.6 mg of coated powder (containing 10 mg of Riboflavin) was dissolved in 1000 ml water for 15 min. Absorption of the solution was measured at 545 nm using a spectrophotometer (Genesys 20, thermo Scientific). Absorption of the solution was 0.087.

`Cc1cc2nc3c(=O)[nH]c(=O)nc-3n(C[C@H](O)[C@H](O)[C@H](O)CO)c2cc1C` [Comparison Example 2, riboflavin]: the “Absorption of the solution” value stood at 0.386.
